Results: patent publication US8217013B2, “Polyene diester antibiotics” (priority 2007, dated 2012)

Columns and labels:
Candida albicans = experiment: Test of antibacterial activity in vitro (bacteria-inhibition zone); format: cell-based
Text: (§1) Test of Antibacterial Activity In Vitro
(§2) Experiment drugs: the polyene diester compounds prepared by examples 1-12
(§3) Control drugs: amphotericin B (standard product) • mycostatin (standard product) • natamycin (standard product)
2.1 Preparation of Candida albicans suspension: PHARMACOPOEIA OF THE PEOPLES REPUBLIC OF CHINA, second part, 2005 edition, appendix p 81-84.
(§4) Taking appropriate amount of the above mentioned amphotericin B, mycostatin, natamycin and the polyene diester compounds prepared by examples 1-8 and 10-12, dissolving in a little dimethyl sulfoxide respectively, using pH7 phosphate buffer to dilute into solution which is equivalent to contain amphotericin B, mycostatin, natamycin 280 Units per milliliter, taking 1 ml and using pH7 phosphate buffer to quantitatively dilute into solution which is equivalent to contain amphotericin B 1.4 μg/ml and 2.8 μg/ml, and is equivalent to contain 5.6 μg/ml of mycostatin and natamycin.
(§5) In addition, preparing the solution according to the same method, adding 40% defibered sheep serum, using pH7 phosphate buffer to quantitatively dilute into unit solution which is equivalent to contain amphotericin B 1.4 μg/ml and 2.8 μg/ml, and is equivalent to contain 5.6 μg/ml of mycostatin and natamycin. Testing according to PHARMACOPOEIA OF THE PEOPLES REPUBLIC OF CHINA, second part, 2005 edition, appendix XIA The Antibiotics Microorganism Test.
(§6) Medium: Improved Martin Agar Medium, PHARMACOPOEIA OF THE PEOPLES REPUBLIC OF CHINA, second part, 2005 edition, appendix p 84.
Test method: Double-plate counting method; […] bacteria bed 15 ml to replace the double layers, culture temperature: 37° C., time: 24 h; strain concentration: 1% […]

Saccharomyces cerevisiae = experiment: as above; format: cell-based
Text: as §1, §2, §3
2.2 Preparation of Saccharomyces cerevisiae suspension: PHARMACOPOEIA OF THE PEOPLES REPUBLIC OF CHINA, second part, 2005 edition, appendix p 80, p 83.
as §4, §5, §6
(§7) Test method: Double-plate counting method; […] bacteria bed 15 ml to replace the double layers, culture temperature: 37° C., time: 24 h; strain concentration: 1%
(§8) Medium: Modified Martin Broth Medium

Candida mycoderma = experiment: as above; format: cell-based
Text: as §1, §2, §3
2.3 Preparation of Candida mycoderrna suspension: the method is as same as preparation of Saccharomyces cerevisiae suspension
as §4, §5, §6, §7, §8

esterase = experiment: Test of esterase hydrolysis in sheep blood serum (HPLC); format: in vitro ADME
Experimental: Test of Esterase […]
Experiment drugs: the amphotericin B methyl pivalate prepared by example 1
Control drug: amphotericin B (standard product)
The stationary phase: Hypersil ODS2 5 um 4.6 mm×250 mm
The mobile phase: methanol: acetonitrile: EDTA-2Na (0.5 mmol)=60:20:20 flow rate: 1 ml/min
Detection system: ultraviolet detection, detection wavelength: 410 nm
Taking appropriate amount of the above mentioned amphotericin B, and amphotericin B methyl pivalate prepared by example 1, dissolving in a little dimethyl sulfoxide respectively, using pH7 phosphate buffer to dilute into solution which is equivalent to contain amphotericin B 280 Units per milliliter, taking 1 ml and using pH7 phosphate buffer to quantitatively dilute into solution which is equivalent to contain amphotericin B 2.8 μg/ml.
Again, preparing the solution according to the same method, adding 10% defibered sheep blood serum, using pH7 phosphate buffer to quantitatively dilute into solution which is equivalent to contain amphotericin B 2.8 μg/ml.
4. Mixing the amphotericin B methyl pivalate prepared by example 1 with sheep blood serum at 37° C. and culturing.
Referring to the test conditions of HPLC of example 25, wherein the mobile phase is acetonitrile: 0.05M ammonium acetate solution=60:40.

[1] = 1.4 μg/ml after conversion, no serum
[2] = 1.4 μg/ml after conversion, serum added (40% defibered sheep serum)
[3] = 2.8 μg/ml after conversion, no serum
[4] = 2.8 μg/ml after conversion, serum added (40% defibered sheep serum)
[5] = 5.6 μg/ml after conversion, no serum
[6] = 5.6 μg/ml after conversion, serum added (40% defibered sheep serum)

## amphotericin B methyl pivalate
Candida albicans; [1]
  diameter of the bacteria-inhibition zone, Candida albicans 0 h: + (7-9 mm: +)
  diameter of the bacteria-inhibition zone, Candida albicans 6 h: + (7-9 mm: +)
  diameter of the bacteria-inhibition zone, Candida albicans 24 h: + (7-9 mm: +)
  diameter of the bacteria-inhibition zone, Candida albicans 48 h: + (7-9 mm: +)
Candida albicans; [2]
  diameter of the bacteria-inhibition zone, Candida albicans 0 h: + (7-9 mm: +)
  diameter of the bacteria-inhibition zone, Candida albicans 6 h: ++ (9-12 mm: ++)
Candida albicans; [3]
  diameter of the bacteria-inhibition zone, Candida albicans 0 h: ++ (9-12 mm: ++)
  diameter of the bacteria-inhibition zone, Candida albicans 6 h: ++ (9-12 mm: ++)
  diameter of the bacteria-inhibition zone, Candida albicans 24 h: ++ (9-12 mm: ++)
  diameter of the bacteria-inhibition zone, Candida albicans 48 h: ++ (9-12 mm: ++)
Candida albicans; [4]
  diameter of the bacteria-inhibition zone, Candida albicans 0 h: ++ (9-12 mm: ++)
Saccharomyces cerevisiae; [1]
  diameter of the bacteria-inhibition zone, Saccharomyces cerevisiae 0 h: + (7-9 mm: +)
  diameter of the bacteria-inhibition zone, Saccharomyces cerevisiae 6 h: + (7-9 mm: +)
  diameter of the bacteria-inhibition zone, Saccharomyces cerevisiae 24 h: + (7-9 mm: +)
  diameter of the bacteria-inhibition zone, Saccharomyces cerevisiae 48 h: + (7-9 mm: +)
Saccharomyces cerevisiae; [2]
  diameter of the bacteria-inhibition zone, Saccharomyces cerevisiae 0 h: + (7-9 mm: +)
Saccharomyces cerevisiae; [3]
  diameter of the bacteria-inhibition zone, Saccharomyces cerevisiae 0 h: ++ (9-12 mm: ++)
  diameter of the bacteria-inhibition zone, Saccharomyces cerevisiae 6 h: ++ (9-12 mm: ++)
  diameter of the bacteria-inhibition zone, Saccharomyces cerevisiae 24 h: ++ (9-12 mm: ++)
  diameter of the bacteria-inhibition zone, Saccharomyces cerevisiae 48 h: ++ (9-12 mm: ++)
Saccharomyces cerevisiae; [4]
  diameter of the bacteria-inhibition zone, Saccharomyces cerevisiae 0 h: ++ (9-12 mm: ++)
Candida mycoderma; [1]
  diameter of the bacteria-inhibition zone, Candida mycoderma 0 h: + (7-9 mm: +)
  diameter of the bacteria-inhibition zone, Candida mycoderma 6 h: + (7-9 mm: +)
  diameter of the bacteria-inhibition zone, Candida mycoderma 24 h: + (7-9 mm: +)
  diameter of the bacteria-inhibition zone, Candida mycoderma 48 h: + (7-9 mm: +)
Candida mycoderma; [2]
  diameter of the bacteria-inhibition zone, Candida mycoderma 0 h: + (7-9 mm: +)
  diameter of the bacteria-inhibition zone, Candida mycoderma 6 h: ++ (9-12 mm: ++)
Candida mycoderma; [3]
  diameter of the bacteria-inhibition zone, Candida mycoderma 0 h: ++ (9-12 mm: ++)
  diameter of the bacteria-inhibition zone, Candida mycoderma 6 h: ++ (9-12 mm: ++)
  diameter of the bacteria-inhibition zone, Candida mycoderma 24 h: ++ (9-12 mm: ++)
  diameter of the bacteria-inhibition zone, Candida mycoderma 48 h: ++ (9-12 mm: ++)
Candida mycoderma; [4]
  diameter of the bacteria-inhibition zone, Candida mycoderma 0 h: ++ (9-12 mm: ++)
esterase; 10% defibered sheep blood serum, 37° C., 24 hours
  hydrolysis by esterase to release the original drug, after 24 hours: most of the diester derivative is hydrolyzed by esterase to release amphotericin B
esterase; sheep blood serum, 37° C., 2, 6 and 24 hours
  hydrolysis by esterase under sheep blood serum cultivation, release of the original drug: gradually hydrolyzed by esterase

## mycostatin methyl pivalate
Candida albicans; [5]
  diameter of the bacteria-inhibition zone, Candida albicans 0 h: + (7-9 mm: +)
  diameter of the bacteria-inhibition zone, Candida albicans 6 h: + (7-9 mm: +)
  diameter of the bacteria-inhibition zone, Candida albicans 24 h: + (7-9 mm: +)
  diameter of the bacteria-inhibition zone, Candida albicans 48 h: + (7-9 mm: +)
Candida albicans; [6]
  diameter of the bacteria-inhibition zone, Candida albicans 0 h: + (7-9 mm: +)
  diameter of the bacteria-inhibition zone, Candida albicans 6 h: + (7-9 mm: +)
  diameter of the bacteria-inhibition zone, Candida albicans 24 h: + (7-9 mm: +)
  diameter of the bacteria-inhibition zone, Candida albicans 48 h: + (7-9 mm: +)
Saccharomyces cerevisiae; [5]
  diameter of the bacteria-inhibition zone, Saccharomyces cerevisiae 0 h: ++ (9-12 mm: ++)
  diameter of the bacteria-inhibition zone, Saccharomyces cerevisiae 6 h: ++ (9-12 mm: ++)
  diameter of the bacteria-inhibition zone, Saccharomyces cerevisiae 24 h: ++ (9-12 mm: ++)
  diameter of the bacteria-inhibition zone, Saccharomyces cerevisiae 48 h: ++ (9-12 mm: ++)
Saccharomyces cerevisiae; [6]
  diameter of the bacteria-inhibition zone, Saccharomyces cerevisiae 0 h: + (7-9 mm: +)
  diameter of the bacteria-inhibition zone, Saccharomyces cerevisiae 6 h: ++ (9-12 mm: ++)
Candida mycoderma; [6]
  diameter of the bacteria-inhibition zone, Candida mycoderma 0 h: + (7-9 mm: +)
  diameter of the bacteria-inhibition zone, Candida mycoderma 6 h: ++ (9-12 mm: ++)
